Data taken from paper PMC5558795 (Antiviral research, 2017).
“Also recorded” adds a separate entry of the source.

How the values were obtained:
[1] = target: Furin (Homo sapiens, UniProt P09958); test: Fluorescent peptide; assay type: biochemical; settings: read-out: In vitro IC50, Furin; 20 nM enzyme, 20 μM Pyr-RTKR-AMC
[2] = system: Fetal human NPCs; assay type: cell-based
[3] = system: ZIKV (Asian strain, FSS13025); test: ZIKV infection of human fetal neural progenitor cells; assay type: cell-based, Zika virus; settings: compound up to 100 μM; for Inhibition of ZIKV infection of hfNPCs (in words): MOI 0.1, 4 days; for Cytotoxicity in hfNPCs (in words): Fig. 7A
[4] = parameters: species or system mice; settings: mouse, in vivo, ip, 10 mg/kg
[5] = target: ZIKV NS2B-NS3pro (Zika virus, UniProt A0A024B7W1); test: Fluorescent peptide; assay type: biochemical; settings: read-out: IC50, ZIKV cleavage activity; Fig. 4A

Sequence of Furin (P09958 108-794): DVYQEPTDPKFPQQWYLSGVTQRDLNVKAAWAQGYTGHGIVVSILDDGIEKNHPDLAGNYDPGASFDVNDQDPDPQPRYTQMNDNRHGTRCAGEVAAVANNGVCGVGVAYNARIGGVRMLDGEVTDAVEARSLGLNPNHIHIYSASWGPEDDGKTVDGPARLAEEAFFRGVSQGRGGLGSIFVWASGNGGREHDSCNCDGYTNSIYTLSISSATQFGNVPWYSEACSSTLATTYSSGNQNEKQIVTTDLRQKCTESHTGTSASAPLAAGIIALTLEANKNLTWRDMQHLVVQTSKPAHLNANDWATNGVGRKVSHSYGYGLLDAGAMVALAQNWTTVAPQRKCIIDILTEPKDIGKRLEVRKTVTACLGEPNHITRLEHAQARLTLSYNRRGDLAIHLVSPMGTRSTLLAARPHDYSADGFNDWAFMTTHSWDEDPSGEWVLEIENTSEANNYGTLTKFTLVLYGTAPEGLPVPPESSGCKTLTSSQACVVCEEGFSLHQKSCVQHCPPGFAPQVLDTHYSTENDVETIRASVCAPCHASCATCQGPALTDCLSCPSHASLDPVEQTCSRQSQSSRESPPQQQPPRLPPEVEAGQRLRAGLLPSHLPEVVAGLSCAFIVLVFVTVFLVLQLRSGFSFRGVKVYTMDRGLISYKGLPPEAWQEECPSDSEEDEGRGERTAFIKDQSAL

Nc1cc(N)c(N=Nc2ccc(S(=O)(=O)Nc3nccs3)cc2)cc1N=Nc1ccc(S(=O)(=O)Nc2nccs2)cc1 [NSC86314]
IC50 [1]: > 100 µM
Cytotoxicity (TC50) [2]: 212.5 µM
Inhibition of ZIKV infection of hfNPCs (in words) [3]: little or no inhibition
Cytotoxicity in hfNPCs (in words) [3]: more cytotoxic

CC(=O)C(N=Nc1ccc(S(=O)(=O)Nc2ccccn2)cc1)C(=O)Nc1ccc(Cl)cc1 (stereo not drawn) [NSC134189]
IC50 [1]: > 100 µM
Cytotoxicity (TC50) [2]: 132.3 µM

Clc1nc2n[nH]nc2nc1Cl [NSC157058]
IC50 [1]: > 100 µM
Cytotoxicity (TC50) [2]: 257.4 µM
Cytotoxicity in hfNPCs (in words) [3]: without demonstrating significant cytotoxicity; also recorded: without significant cellular toxicity
Plasma half-life [4]: ~ 20 min

Clc1ccc(-c2nn3c(COc4cc(Cl)c(OCc5nnc6sc(-c7ccc(Cl)cc7)nn56)cc4Cl)nnc3s2)cc1 [NSC716897]
IC50 [1]: > 100 µM
Cytotoxicity (TC50) [2]: 178.4 µM

Clc1cc(OCc2nnc3sc(Cc4ccccc4)nn23)c(Cl)cc1OCc1nnc2sc(Cc3ccccc3)nn12 [NSC716898]
IC50 [1]: > 100 µM
Cytotoxicity (TC50) [2]: 235.8 µM

Clc1ccc(-c2nn3c(COc4cccc(OCc5nnc6sc(-c7ccc(Cl)cc7)nn56)c4)nnc3s2)cc1 [NSC716903]
IC50 [1]: > 100 µM
Cytotoxicity (TC50) [2]: 127.8 µM
Inhibition of ZIKV infection of hfNPCs (in words) [3]: little or no inhibition
Cytotoxicity in hfNPCs (in words) [3]: more cytotoxic

Fc1cc(C2=Nn3c(COc4ccc(Cl)cc4Cl)nnc3S/C2=C\c2ccc(-c3ccc(Cl)cc3)o2)c(Cl)cc1Cl [NSC719147]
IC50 [1]: > 100 µM
Cytotoxicity (TC50) [2]: 160.3 µM

aprotinin
IC50 [5]: ~0.07 µM
